Publication PMC11117309
Non-standard residues stand in square brackets, D forms with d. Residues, ends and D or L forms follow the SMILES beside them.

## CC[C@@H](C)[C@@H](NC(=O)[C@@H](C)NC(=O)[C@@H](CCC(=O)O)NC(=O)[C@H](NC(=O)[C@@H](CC(C)C)NC(=O)[C@@H](CCC(=O)O)NC(=O)CNC(=O)[C@@H](C)NC(=O)[C@@H](C)NC(=O)[C@@H](CC(C)C)NC(=O)[C@H](NC(=O)[C@@H](Cc1ccccc1)NC(=O)[C@@H](CC(C)C)NC(=O)[C@@H](CCC(=O)O)NC(=O)[C@@H](CC(C)C)NC(=O)[C@@H](Cc1ccccc1)NC(=O)[C@@H](C)NC(=O)[C@@H](CCCCN)NC(=O)CNC(=O)[C@H](N)CCCNC(=N)N)[C@H](C)CC)[C@H](C)CC)C(=O)N[C@H](CC(=O)O)C(=O)N[C@H](CCCNC(=N)N)C(=O)N[C@@H](C(=O)N[C@H](Cc1ccccc1)C(=O)N[C@@H](C(=O)NCC(=O)N[C@H](CCC(=O)O)C(=O)N[C@H](C)C(=O)N[C@H](Cc1c[nH]cn1)C(=O)O)[C@H](C)O)[C@H](C)O (H-[dR]G[dK][dA][dF][dL][dE][dL][dF][dI][dL][dA][dA]G[dE][dL][dI][dE][dA][dI][dD][dR][dT][dF][dT]G[dE][dA][dH]-OH)
  peptide remaining after proteinase K exposure: > 88%
